We go through 16 molecules from patent US20230190760A1, “ADVANTAGEOUS THERAPIES FOR DISORDERS MEDIATED BY IKAROS OR AIOLOS” (C4 Therapeutics, Inc., priority 2020, published 2023).

One series has as its system NCIH929.1 cells. The series is described as follows: NCIH929.1 cell viability assay (CellTiter-Glo, GI50). The class given is cell-based. To be noted: 96 hr.
The subject of the next series is TMD8 DLBCL tumors. The settings on record: Compound 1 50 μg/kg, Ibrutinib 12500 μg/kg, Combination of both; PO daily.
The next series has as its system r/r subjects with MCL. The settings on record: r/r MCL following bortezomib; cited from earlier work.
A short description of series [1]: Plasma PK and interconversion in rat. The class given is in vivo. To be noted: Compound 1 30 mg/kg PO. How it is done: (§1) Compound 1 was administered to a rat at a concentration of 30 mg/kg PO and monkeys at a concentration of either 60 μg/kg or 100 μg/kg PO. At the indicated timepoints shown in FIG. 25A and FIG. 25B, plasma samples were collected and the Cmax, half-life, and AUC0-inf were determined for both Compound 1 and a metabolite of Compound 1, Compound 14. The percent of Compound 14 was also determined (Table 13). PK values dose normalized to 1 mg/kg. FIG. 25A is a graph measuring the concentration of Compound 1 or Compound 14 over the course of 24 hours in monkeys administered 100 μg/kg or 60 μg/kg of Compound 1. FIG. 25B is a graph measuring the concentration of Compound 1 or Compound 14 over the course of 24 hours in a rat administered 30 mg/kg of Compound 1.

A short description of series [2]: Plasma PK and interconversion in monkeys. The settings on record: monkey, Compound 1 60 μg/kg or 100 μg/kg PO, dose normalized to 1 mg/kg. The class given is in vivo. How it is done: as §1
Series [3] relates to RPMI-8226 multiple myeloma tumors. To be noted: Compound 1 10 μg/kg PO daily, Dexamethasone 5000 μg/kg IV once a week, Combination.
Method: A xenograft study was conducted in female CB17 SCID mice bearing RPMI-8226 multiple myeloma tumors. Female SCID mice were inoculated subcutaneously in the right flank with 10×10^6 tumors cells in 0.2 mL of PBS supplemented with matrigel (PBS:matrigel=1:1). Tumor volume was measured twice weekly in two dimensions using calipers, and volume was calculated using the formula: (w2×l)/2=mm^3, assuming 1 mg is equivalent to 1 mm^3 of tumor volume. […] Treatment began on Day 0 with established subcutaneous RPMI-8226 tumors with a mean tumor volume (MTV) of 130 mm^3.
All agents were administered to mice bearing RPMI-8226 tumors on day 0 and dosed until an individual moue tumor volume reached or exceeded 1000 mm^3, at which point the mouse was removed from the study and dosing stopped. […] Dexamethasone was dosed IV once a week at 5000 μg/kg and formulated in saline. […] Body weight and MTV were measured on a 2× weekly schedule. The study end point was reaching a TV greater than 1000 mm^3, at which point any mouse with a TV reaching this cut off TV was removed from the study. […] The survival analysis used was Logrank (Mantel-Cox test). Data are expressed as MTV±SEM.

Method for TMD8 DLBCL tumors: A xenograft study was conducted in female CB17 SCID mice bearing TMD8 DLBCL tumors. Female SCID mice were inoculated subcutaneously in the right flank with 5×10^6 tumors cells in 0.2 mL of PBS supplemented with matrigel (PBS:matrigel=1:1). Tumor volume was measured twice weekly in two dimensions using calipers, and volume was calculated using the formula: (w2×l)/2=mm^3, assuming 1 mg is equivalent to 1 mm^3 of tumor volume. […] Treatment began on Day 0 with established subcutaneous TMD8 tumors with a mean tumor volume (MTV) of 107-108 mm^3.
All agents were administered to mice bearing TMD8 tumors on day 0 and dosed PO daily until individual tumor volumes reached or exceeded 1500 mm^3, at which point dosing stopped and the individual mouse was removed from the study. Compound 1 was dosed at 50 μg/kg and was formulated in PEG400 (30% v/v)+70% v/v HPMC (1% w/v) in citrate buffer (pH 5). Ibrutinib was dosed at 12.5 mg/kg and formulated in 0.5% MC+0.4% cremophor EL+0.1% sodium lauryl sulfate. Compound 1 was also dosed in combination with Ibrutinib at their respective single agent doses. Body weight and MTV was measured on a 2× weekly schedule and the study end point was when all mice were removed from the study on day 54. Statistical analysis was performed using survival analysis and the Logrank test (Mantel-Cox test). Data are expressed as MTV±SEM.

In general, GI50 refers to the concentration giving 50% growth inhibition. Low values mean greater sensitivity of the cells, high ones lower sensitivity of the cells. For `CC1(CN2CCC(n3cc(Cc4ccc5c6c(cccc46)C(=O)N5C4CCC(=O)NC4=O)cn3)CC2)CCC1` (centres unmarked) [Compound 2, 3-(6-((1-(1-((1-methylcyclobutyl)methyl)piperidin-4-yl)-1H-pyrazol-4-yl)methyl)-2-oxobenzo[cd]indol-1(2H)-yl)piperidine-2,6-dione], growth in the series on NCIH929.1 cells was halved (GI50) at 0.00933 nM.
As for `C=CC(=O)N1CCC[C@@H](n2nc(-c3ccc(Oc4ccccc4)cc3)c3c(N)ncnc32)C1` [Ibrutinib, 1-[(3R)-3-[4-amino-3-(4-phenoxy-phenyl)pyrazolo[3,4-d]pyrimidin-1-yl]piperidin-1-yl]prop-2-en-1-one, reference compound], the “Median Survival” value in the series with TMD8 DLBCL tumors is given as 28.
`Nc1cccc2c1CN(C1CCC(=O)NC1=O)C2=O` (centres unmarked) [lenalidomide]: in the series on r/r subjects with MCL, the “median duration of response [DOR]” value was 16.6 months and the “overall response rate [ORR]” value was 28%.
In turn, `CC1(C(=O)N2CCC(C)(n3cc(Cc4ccc5c6c(cccc46)C(=O)N5C4CCC(=O)NC4=O)cn3)CC2)CCC1` (centres unmarked) [Compound 6, 3-(6-((1-(4-methyl-1-(1-methylcyclobutane-1-carbonyl)piperidin-4-yl)-1H-pyrazol-4-yl)methyl)-2-oxobenzo[cd]indol-1(2H)-yl)piperidine-2,6-dione] displayed a GI50 in the series on NCIH929.1 cells of 0.0146 nM.
Still for that read-out and setting: the value for `O=C1CCC(N2C(=O)c3cccc4c(Cc5ccc(CN6CCN(c7ccccc7F)CC6)cc5)ccc2c34)C(=O)N1` (centres unmarked) [Compound 3, 3-(6-(4-((4-(2-fluorophenyl)piperazin-1-yl)methyl)benzyl)-2-oxobenzo[cd]indol-1(2H)-yl)piperidine-2,6-dione] was 0.0409 nM.
What is called AUC(0-inf) is total exposure, with the tail of the curve extrapolated. Read a low AUC(0-inf) as less exposure. A word on the Cmax: it is the highest concentration seen after dosing. In series [1] (dose normalized to 1 mg/kg), `O=C1CC[C@@H](N2C(=O)c3cccc4c(Cc5ccc(CN6CCOCC6)cc5)ccc2c34)C(=O)N1` [Compound 14] yielded an AUC(0-inf) of 47 ng·h/mL and a Cmax of 6 ng/mL. In addition, the half-life in series [1] (read-out: T ½ (converted)) was 2.7 h. Moreover, the Cmax in series [2] came to 5 ng/mL.
In turn, `CC(C)(C)C(=O)N1CCC(C)(n2cc(Cc3ccc4c5c(cccc35)C(=O)N4C3CCC(=O)NC3=O)cn2)CC1` (centres unmarked) [Compound 11, 3-(6-((1-(4-methyl-1-pivaloylpiperidin-4-yl)-1H-pyrazol-4-yl)methyl)-2-oxobenzo[cd]indol-1(2H)-yl)piperidine-2,6-dione] yielded a GI50 in the series on NCIH929.1 cells of 0.0272 nM. This counts as picomolar.
As for `O=C1CCC(N2C(=O)c3cccc4c(Cc5cnn(C6CCN(CC7(F)CC7)CC6)c5)ccc2c34)C(=O)N1` (centres unmarked) [Compound 13, 3-(6-((1-(1-((1-fluorocyclopropyl)methyl)piperidin-4-yl)-1H-pyrazol-4-yl)methyl)-2-oxobenzo[cd]indol-1(2H)-yl)piperidine-2,6-dione], in the series on NCIH929.1 cells, halving of growth (GI50) required 0.155 nM. This GI50 lies about 5.7-fold higher than the previous one.
Molecule `CC(C)(C)CN1CCC(n2cc(Cc3ccc4c5c(cccc35)C(=O)N4C3CCC(=O)NC3=O)cn2)CC1` (centres unmarked) [Compound 9, 3-(6-((1-(1-neopentylpiperidin-4-yl)-1H-pyrazol-4-yl)methyl)-2-oxobenzo[cd]indol-1(2H)-yl)piperidine-2,6-dione] gave a GI50 with NCIH929.1 cells of 0.0297 nM.
`C[C@@H]1C[C@H]2[C@@H]3CCC4=CC(=O)C=C[C@]4(C)[C@@]3(F)[C@@H](O)C[C@]2(C)[C@@]1(O)C(=O)CO` [Dexamethasone, reference compound]: the “Median Survival” value in series [3] is recorded as 30.
Consider `CC1(CN2CCC(n3cc(Cc4ccc5c6c(cccc46)C(=O)N5C4CCC(=O)NC4=O)cn3)CC2)CC1` (centres unmarked) [Compound 7, 3-(6-((1-(1-((1-methylcyclopropyl)methyl)piperidin-4-yl)-1H-pyrazol-4-yl)methyl)-2-oxobenzo[cd]indol-1(2H)-yl)piperidine-2,6-dione], for which the GI50 with NCIH929.1 cells turned out to be 0.0159 nM.
The same measure, in the same setting: the value for `CC1(CN2CCC(C)(n3cc(Cc4ccc5c6c(cccc46)C(=O)N5C4CCC(=O)NC4=O)cn3)CC2)CC1` (centres unmarked) [Compound 8, 3-(6-((1-(4-methyl-1-((1-methylcyclopropyl)methyl)piperidin-4-yl)-1H-pyrazol-4-yl)methyl)-2-oxobenzo[cd]indol-1(2H)-yl)piperidine-2,6-dione] was 0.138 nM; that for `CC(C)(C)CN1CCC(C)(n2cc(Cc3ccc4c5c(cccc35)C(=O)N4C3CCC(=O)NC3=O)cn2)CC1` (centres unmarked) [Compound 10, 3-(6-((1-(4-methyl-1-neopentylpiperidin-4-yl)-1H-pyrazol-4-yl)methyl)-2-oxobenzo[cd]indol-1(2H)-yl)piperidine-2,6-dione] was 0.0621 nM.
Still for that read-out and setting: the value for `O=C1CC[C@H](N2C(=O)c3cccc4c(Cc5ccc(CN6CCC7(CCCO7)CC6)cc5)ccc2c34)C(=O)N1` (single isomer, unassigned) [Compound 12] was 0.0107 nM; that for `O=C1CCC(N2C(=O)c3cccc4c(Cc5ccc(CN6CCOCC6)cc5)ccc2c34)C(=O)N1` (centres unmarked) [Compound 5, 3-(6-(4-(morpholinomethyl)benzyl)-2-oxobenzo[cd]indol-1(2H)-yl)piperidine-2,6-dione] was 0.0498 nM; that for `N#Cc1ccc(N2CCN(Cc3ccc(Cc4ccc5c6c(cccc46)C(=O)N5C4CCC(=O)NC4=O)cc3)CC2)c(F)c1` (centres unmarked) [Compound 4, 4-(4-(4-((1-(2,6-dioxopiperidin-3-yl)-2-oxo-1,2-dihydrobenzo[cd]indol-6-yl)methyl)benzyl)piperazin-1-yl)-3-fluorobenzonitrile] was 0.0201 nM.
